Where a name gives a salt, the structure may show the parent alone. Read-outs that look alike come from different tables or passages of the source.
How the values were obtained:
DPPIV [1] = target: T1, DPPIV (Homo sapiens (Human), UniProt P27487); assay: DPP-IV-inhibiting activity, fluorescence assay with Ala-Pro-AMC substrate; type: biochemical; details: pH7.5, 37° C.
Method: Determination of DPP-IV-inhibiting activity could be performed by common methods. DPP-IV was pure enzyme expressed by using baculovirus expressing system and purified. […] The reaction system was carried out in buffer of pH7.5 and the substrate was alanine-proline-7-amino-4-methylcoumarin (Ala-Pro-AMC).
DPP-IV could degradate substrate Ala-Pro-AMC to give product AMC. […] The DPP-IV activity could be determined by dynamic detecting the increasing speed of fluorescence value at 460 nm.
Thoroughly mixed test compounds, enzyme and reaction buffer, preincubated the mixture for 15 minutes at 37° C. and then primed reaction by adding substrate, successfully detecting fluorescence value at 460 nm for 5 minutes. […] All final reaction volumes were 100 μL. Each concentration of each sample consisted of parallel wells in triplate.
Firstly, calculated the increment of fluorescence intensity per unit time during the initial speed of enzyme (unit: RFU/sec) which can be used to express initial speed, then calculated activity percentage of sample in each concentration group as follows: Activity %=vsample/vDMSO*100%
Wherein, vsample represents initial speed of sample in each concentration group, vDMSO represents initial speed of DMSO group.
Logarithm concentration was plotted versus activity percentage, and then calculated fitting curve by nonlinear regression from which IC50 value was calculated.

DPPIV [2] = target: T1, DPPIV; assay: Selectivity panel, recombinant dipeptidase inhibition (fluorescence substrate): DPPIV; type: biochemical
Description: (§1) The recombinant proteins of DPPIV, DPP8, DPP9 and FAP were expressed by using insect expression system (purchased from Shanghai Jinmai Biotechnology Co. Ltd). The activities of these […] were detected by using fluorescence substrate.

DPP8 = DPP8 (Homo sapiens (Human), UniProt Q6V1X1); assay: Selectivity panel, recombinant dipeptidase inhibition (fluorescence substrate): DPP8; type: biochemical; details: for Selective ratio DPP8/DPPIV: ratio of IC50 values; for IC50: recombinant DPP8
Chain of DPP8 (Q6V1X1 whole entry): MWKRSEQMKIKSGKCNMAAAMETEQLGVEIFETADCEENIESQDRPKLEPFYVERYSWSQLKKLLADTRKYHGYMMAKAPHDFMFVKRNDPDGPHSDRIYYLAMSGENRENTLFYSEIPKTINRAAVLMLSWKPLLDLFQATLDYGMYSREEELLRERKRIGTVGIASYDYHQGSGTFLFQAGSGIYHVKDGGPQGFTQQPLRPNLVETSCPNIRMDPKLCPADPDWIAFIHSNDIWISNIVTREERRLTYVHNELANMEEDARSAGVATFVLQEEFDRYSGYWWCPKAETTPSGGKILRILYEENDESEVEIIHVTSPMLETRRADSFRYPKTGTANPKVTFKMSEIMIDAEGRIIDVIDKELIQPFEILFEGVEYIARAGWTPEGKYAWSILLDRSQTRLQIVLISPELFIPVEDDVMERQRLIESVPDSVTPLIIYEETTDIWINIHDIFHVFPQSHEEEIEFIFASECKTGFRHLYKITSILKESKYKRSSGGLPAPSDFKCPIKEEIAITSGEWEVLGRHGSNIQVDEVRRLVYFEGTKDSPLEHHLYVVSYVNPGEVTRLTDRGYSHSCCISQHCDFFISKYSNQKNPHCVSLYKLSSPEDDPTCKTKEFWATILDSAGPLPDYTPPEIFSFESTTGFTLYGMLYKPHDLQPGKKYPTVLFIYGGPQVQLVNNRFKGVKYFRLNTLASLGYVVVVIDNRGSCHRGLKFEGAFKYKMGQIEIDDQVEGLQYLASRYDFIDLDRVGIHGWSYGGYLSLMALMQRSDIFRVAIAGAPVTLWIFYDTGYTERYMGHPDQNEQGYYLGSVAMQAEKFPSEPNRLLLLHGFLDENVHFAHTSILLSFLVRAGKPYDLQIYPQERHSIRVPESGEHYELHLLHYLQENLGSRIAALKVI
Description: as §1

DPP9 = DPP9 (Homo sapiens (Human), UniProt Q86TI2); assay: Selectivity panel, recombinant dipeptidase inhibition (fluorescence substrate): DPP9; type: biochemical; details: for Selective ratio DPP9/DPPIV: ratio of IC50 values; for IC50: recombinant DPP9
Chain of DPP9 (Q86TI2 whole entry): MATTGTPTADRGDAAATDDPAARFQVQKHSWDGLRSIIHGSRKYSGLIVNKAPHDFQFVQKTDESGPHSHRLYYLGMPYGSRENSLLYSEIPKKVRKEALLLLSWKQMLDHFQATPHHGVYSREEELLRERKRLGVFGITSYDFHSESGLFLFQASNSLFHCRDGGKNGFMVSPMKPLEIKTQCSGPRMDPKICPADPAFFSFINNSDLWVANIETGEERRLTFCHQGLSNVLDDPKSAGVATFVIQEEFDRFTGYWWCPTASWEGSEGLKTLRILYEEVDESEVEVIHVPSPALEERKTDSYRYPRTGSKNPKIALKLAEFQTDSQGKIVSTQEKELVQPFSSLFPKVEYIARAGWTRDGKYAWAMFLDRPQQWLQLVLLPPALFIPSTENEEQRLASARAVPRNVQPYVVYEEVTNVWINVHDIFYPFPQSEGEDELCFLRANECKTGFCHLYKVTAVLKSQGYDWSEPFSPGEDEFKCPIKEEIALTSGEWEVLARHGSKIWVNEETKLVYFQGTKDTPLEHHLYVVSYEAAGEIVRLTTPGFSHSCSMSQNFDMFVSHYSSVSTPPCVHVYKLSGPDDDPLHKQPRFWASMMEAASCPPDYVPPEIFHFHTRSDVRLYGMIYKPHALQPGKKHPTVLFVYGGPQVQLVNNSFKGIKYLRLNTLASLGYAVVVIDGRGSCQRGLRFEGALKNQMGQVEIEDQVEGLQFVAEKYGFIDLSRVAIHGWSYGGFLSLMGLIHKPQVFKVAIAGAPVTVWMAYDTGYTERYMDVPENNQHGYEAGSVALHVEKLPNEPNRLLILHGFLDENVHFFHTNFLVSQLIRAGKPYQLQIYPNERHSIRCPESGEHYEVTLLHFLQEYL
Description: as §1

FAP = FAP (Homo sapiens (Human), UniProt Q12884); assay: Selectivity panel, recombinant dipeptidase inhibition (fluorescence substrate): FAP; type: biochemical
Chain of FAP (Q12884 whole entry): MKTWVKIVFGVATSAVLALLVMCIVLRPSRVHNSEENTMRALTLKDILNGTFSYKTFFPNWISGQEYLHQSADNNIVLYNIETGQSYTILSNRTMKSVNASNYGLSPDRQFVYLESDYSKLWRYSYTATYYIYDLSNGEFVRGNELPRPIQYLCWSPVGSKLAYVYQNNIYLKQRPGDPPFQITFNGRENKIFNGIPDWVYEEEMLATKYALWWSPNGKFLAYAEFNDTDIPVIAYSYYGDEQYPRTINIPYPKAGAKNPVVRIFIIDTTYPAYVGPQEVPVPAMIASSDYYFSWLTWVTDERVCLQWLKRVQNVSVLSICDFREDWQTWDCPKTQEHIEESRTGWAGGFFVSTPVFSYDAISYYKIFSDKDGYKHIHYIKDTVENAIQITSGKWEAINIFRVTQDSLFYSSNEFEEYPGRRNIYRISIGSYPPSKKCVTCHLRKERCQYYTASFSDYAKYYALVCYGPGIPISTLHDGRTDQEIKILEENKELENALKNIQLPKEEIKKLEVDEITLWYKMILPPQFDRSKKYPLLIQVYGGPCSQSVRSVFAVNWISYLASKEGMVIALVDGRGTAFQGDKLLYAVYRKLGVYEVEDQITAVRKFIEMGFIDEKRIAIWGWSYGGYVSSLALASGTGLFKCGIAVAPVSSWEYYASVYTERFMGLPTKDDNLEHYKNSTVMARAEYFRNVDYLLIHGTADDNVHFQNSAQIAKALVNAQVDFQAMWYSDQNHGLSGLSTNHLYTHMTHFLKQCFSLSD
Description: as §1

[3] = In vivo pharmacokinetic study in rats (gavage); design: species or system SD rats; details: 20 mg/kg gavage
Method: 12 healthy, male SD rats with 200-220 g body weight were assigned randomly to 3 groups (4 in each group), particular assignment was shown in the table below:
Rats were fasted for 12 h before test with free access to water and uniformly fed at 2 h after administration.
Time points of blood collecting and samples treatment: 0.3 mL blood was drawn through mice post-glomus venous plexus at 0.25, 0.5, 1.0, 2.0, 3.0, 4.0, 5.0, 7.0, 9.0 and 24 hours post-administration, placed in heparinized test tube, centrifuged at 3000 rpm/min for 10 minutes, separated plasma, frozen in refrigerator at −20° C. Unchanged drug concentration in plasma was determined by liquid chromatography-tandem mass spectrometry method.

normal ICR mice = assay: In vivo glucose-decreasing activity, oral glucose load in normal mice; details: 3.0 mg/kg gavage; for AUC (area under curve of blood glucose): glucose load 60 min post-administration, x ± s
Method: 70 male clean-grade ICR mice with 20.0-24.0 g body weight were provided by Experimental Animal Center of Zhejiang University. Production license number of experimental animal: SCXK[zhe]2007-0039; Use license number of experimental animal: SYXK(zhe)2007-0098.
Feeding condition for animals: met the requirement for experimental facility of SPF grade animals, temperature at 20-25° C., humidity of 0-70%, illuminating condition was alternately 12 hours of brightness and 12 hours of darkness, ventilation rate was 10-20 times per hour, free access to water (city drinking water), illumination was 12 h/12 h of alternating light and dark at day and night respectively.
50 male clean-grade mice passing quarantine with 20.0-24.0 g body weight were randomly divided into 5 groups which included solvent control group, model group, compound dose group (3.0 mg/kg) respectively, 10 per group.
Mice in each group were fasted for 12 hours and then 0.08 mL blood was drawn by cutting tail. Serum was collected and used to determinating fasting blood glucose value. After drawing blood, mice in each dose group were administrated by gavage with different drug solution of corresponding dose and mice in solvent control and model group were administrated with distilled water of equal volume, wherein administration volume was 0.2 mL/10 g. 0.08 mL blood was drawn from each group at 60 minutes post-administration to determine the blood glucose value at 60 minutes post-administration. After drawing blood, […] glucose was administrated by gavage to each group except for solvent control group, wherein administration volume was 0.2 mL/10 g, and then blood was drawn at 20 min, 40 min, 60 min, 120 min after administration of glucose respectively, blood was centrifugated at 6000 rpm for 10 min to separate serum for determining the blood glucose value at each time point, area under curve of blood glucose was calculated on the basis of blood glucose concentration.

[4] = male, SD, rat, plasma, po, read-out: Cmax
[5] = male, SD, rat, plasma, po, read-out: Tmax

T1 sequence (P27487 whole entry): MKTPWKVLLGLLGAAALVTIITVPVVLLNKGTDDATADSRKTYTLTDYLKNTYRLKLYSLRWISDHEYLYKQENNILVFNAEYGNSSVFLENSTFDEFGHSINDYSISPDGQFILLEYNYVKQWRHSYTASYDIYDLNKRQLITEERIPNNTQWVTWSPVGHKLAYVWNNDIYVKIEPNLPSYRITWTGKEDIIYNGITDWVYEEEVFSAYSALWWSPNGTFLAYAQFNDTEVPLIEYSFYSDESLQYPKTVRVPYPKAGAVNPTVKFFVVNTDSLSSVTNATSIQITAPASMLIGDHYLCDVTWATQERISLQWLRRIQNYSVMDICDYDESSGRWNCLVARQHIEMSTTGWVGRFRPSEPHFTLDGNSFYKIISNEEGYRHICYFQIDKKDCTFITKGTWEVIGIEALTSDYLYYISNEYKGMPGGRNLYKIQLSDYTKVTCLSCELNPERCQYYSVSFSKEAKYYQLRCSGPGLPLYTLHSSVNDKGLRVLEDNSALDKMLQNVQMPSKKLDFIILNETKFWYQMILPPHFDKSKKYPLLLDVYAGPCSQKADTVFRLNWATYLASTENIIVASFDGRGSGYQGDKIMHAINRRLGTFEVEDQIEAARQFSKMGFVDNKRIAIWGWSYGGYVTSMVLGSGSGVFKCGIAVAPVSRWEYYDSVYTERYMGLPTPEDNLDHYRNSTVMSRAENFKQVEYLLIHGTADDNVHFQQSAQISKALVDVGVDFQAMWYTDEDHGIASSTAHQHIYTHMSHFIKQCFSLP

Row | SMILES | IC50 (DPPIV [1]) [µM] | IC50 (DPPIV [2]) [µM] | Selective ratio DPP8/DPPIV (DPP8) | IC50 (DPP8) [µM] | Selective ratio DPP9/DPPIV (DPP9) | IC50 (DPP9) [µM] | IC50 (FAP) [µM] | AUC0−t [3] [ngh/mL] | inhibition rate (blood glucose AUC) (normal ICR mice) [%] | AUC (area under curve of blood glucose) (normal ICR mice) [mmol·min/L] | also measured
1 | CC(C)(F)C(=O)N1C[C@@H]2CCN(C(=O)C[C@H](N)Cc3cc(F)c(F)cc3F)[C@@H]2C1 [Compound 8, (R)-3-amino-1-((3aS,6aS)-5-(2-fluoro-2-methylpropionyl)-hexahydropyrrolo[3,4-b]pyrrol-1(2H)-yl)-4-(2,4,5-trifluorophenyl)butan-1-onefumarate] | 0.0112 ± 0.00376 | 0.011 | 1602 | 17.6 ± 3.61 | 322 | 3.55 ± 1.02 | 13.5 ± 0.28 | 2921 | 63.0 | 129 ± 41 | half-life ([3]; male, SD, rat, plasma, po): 2.29 h; Cmax [3, 4]: 933 ng/mL; Tmax [3, 5]: 1 h
2 | CC(C)(C)C(=O)N1C[C@@H]2CCN(C(=O)C[C@H](N)Cc3cc(F)c(F)cc3F)[C@@H]2C1 [Compound 20, (R)-3-amino-1-((3aS,6aS)-5-(tertvaleryl)-hexahydropyrrolo[3,4-b]pyrrol-1(2H)-yl)-4-(2,4,5-trifluorophenyl)butan-1-one fumarate] | 0.0232 ± 0.00224 | 0.023 | 907 | 20.9 ± 5.63 | 241 | 5.55 ± 2.52 | 15.9 ± 4.72 | 2076 | 38.3 | 215 ± 44 | half-life ([3]; male, SD, rat, plasma, po): 2.45 h; Cmax [3, 4]: 917 ng/mL; Tmax [3, 5]: 0.81 h
3 | CN(C)C(=O)N1C[C@@H]2CCN(C(=O)C[C@H](N)Cc3cc(F)c(F)cc3F)[C@@H]2C1 [Compound 3, (R)-3-amino-1-((3aS,6aS)-5-(N,N-dimethylaminoformyl)-hexahydropyrrolo[3,4-b]pyrrol-1(2H)-yl)-4-(2,4,5-trifluorophenyl)butane-1-one fumarate] | 0.0177 ± 0.00377 |  |  |  |  |  |  |  |  |  | 
4 | CS(=O)(=O)c1cccc(C(=O)N2C[C@@H]3CCN(C(=O)C[C@H](N)Cc4cc(F)c(F)cc4F)[C@@H]3C2)c1.O=C(O)/C=C/C(=O)O [Compound 26, (R)-3-amino-1-((3aS,6aS)-5-(3-mesylbenzoyl)-hexahydropyrrolo[3,4-b]pyrrol-1(2H)-yl)-4-(2,4,5-trifluorophenyl)butan-1-one fumarate] | 0.00261 ± 0.00046 | 0.0026 | 6057 | 15.8 ± 7.65 | 1311 | 3.45 ± 3.47 | 11.3 ± 4.02 |  |  |  | 
5 | N#CC1(C(=O)N2C[C@@H]3CCN(C(=O)C[C@H](N)Cc4cc(F)c(F)cc4F)[C@@H]3C2)CC1 [Compound 17, (R)-3-amino-1-((3aS,6aS)-5-(1-cyanocyclopropylcarbonyl)-hexahydropyrrolo[3,4-b]pyrrol-1(2H)-yl)-4-(2,4,5-trifluorophenyl)butan-1-one fumarate] | 0.0115 |  |  |  |  |  |  |  |  |  | 
6 | N[C@@H](CC(=O)N1CCn2c(nnc2C(F)(F)F)C1)Cc1cc(F)c(F)cc1F [Sitagliptin, reference compound] |  |  |  |  |  |  |  | 1655 | 31.1 | 240 ± 24 | Cmax [3]: 477 ng/mL; T1/2 [3]: 2.11 h; Tmax [3]: 0.44 h
7 | N[C@@H](CC(=O)N1CC[C@H]2CN(C(=O)C3CC3)C[C@H]21)Cc1cc(F)c(F)cc1F [Compound 12, (R)-3-amino-1-((3aS,6aS)-5-(cyclopropylcarbonyl)-hexahydropyrrolo[3,4-b]pyrrol-1(2H)-yl)-4-(2,4,5-trifluorophenyl)butan-1-one fumarate] | 0.0259 ± 0.00391 |  |  |  |  |  |  |  |  |  | 
8 | CN1C[C@@H]2CCN(C(=O)C[C@H](N)Cc3cc(F)c(F)cc3F)[C@@H]2C1 [Compound 1, (R)-3-amino-1-((3aS,6aS)-hexahydro-5-methylpyrrolo[3,4-b]pyrrol-1(2H)-yl)-4-(2,4,5-trifluorophenyl)butan-1-one fumarate] | 0.0228 ± 0.00199 |  |  |  |  |  |  |  |  |  | 

From patent US8785477B2, “Hexahydropyrrolo[3,4-b]pyrrole derivatives, preparation methods and pharmaceutical uses thereof” (Shanghai Sun-Sail Pharmaceutical Science & Technology Co., …, priority 2010, dated 2014)
